The results in this text go back to US10315996B2, “ROR gamma (RORγ) modulators” (LEAD PHARMA HOLDING B.V., priority 2015, dated 2019).

A value given as a limit tells only on which side of the number the result lay.

This experiment concerns the target T1, RORγ (Homo sapiens, UniProt P51449).
T1 construct: expressed in transfected cells; host or cells: 293FT cells (Invitrogen), expression vector pFN26A (Promega)
T1 sequence (P51449 269-508 limits assumed): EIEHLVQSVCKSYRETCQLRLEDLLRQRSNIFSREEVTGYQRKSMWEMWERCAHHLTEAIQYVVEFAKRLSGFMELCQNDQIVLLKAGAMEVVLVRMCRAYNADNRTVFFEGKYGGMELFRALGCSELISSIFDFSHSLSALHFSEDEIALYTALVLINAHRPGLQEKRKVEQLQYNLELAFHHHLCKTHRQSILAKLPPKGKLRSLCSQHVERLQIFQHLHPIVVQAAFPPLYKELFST
Briefly: RORγ GAL4 reporter gene assay. It is filed as cell-based. The conditions noted are these: inhibition of RORγ activity, GAL4-RORγ-LBD luciferase reporter in 293FT cells, overnight incubation; read-out: mean pIC50 (converted). On the procedure: Example inhibitors 1-166 were tested for their ability to inhibit RORγ activity in a RORγ GAL4 reporter gene assay. The assay procedure and results are described below.
RORγ GAL4 Reporter Gene Assay Description
A GAL4 one-hybrid reporter system employing luciferase readout was established to determine inhibition of RORγ in 293FT cells. The RORγ ligand-binding domain (LBD) was fused to the yeast GAL4 DNA binding domain (DBD) and placed under the control of the human cytomegalovirus (CMV) immediate early promoter, using expression vector pFN26A (Promega) and standard recombinant DNA cloning methods. To serve as a control in the assay, a similar vector was generated in which the GAL4-DBD was fused to Herpes simplex virus protein 16 (VP16), a constitutive transcriptional activator.
To monitor the inhibitory effect of compounds on RORγ, a transcriptional reporter construct was used. The pGL4.35 vector (Promega) contains nine copies of the GAL4 Upstream Activator Sequence (UAS). This sequence drives the transcription of the luciferase reporter gene luc2P in response to binding of a fusion protein containing the GAL4 DNA binding domain, as for example expressed by the GAL4-RORγ-LBD and GAL4-VP16 expression vectors described above. To allow a GAL4 fusion protein to drive the expression of the luciferase reporter, the pGL4.35 expression vector and the appropriate GAL4 fusion protein expression vector were bulk transfected in the 293FT cells using standard transfection techniques.
The day after transfection, cells were plated into 96 well plates, test compound was added and the plates were incubated overnight. Subsequently, the firefly luciferase activity was quantified using luciferase detection reagent and luminescence readout.
Detailed Assay Description
293FT cells (Invitrogen) were transfected with a GAL4 fusion protein expression vector (as described above) and the transcriptional reporter construct (pGL4.35, Promega). 60 μL of TransIT-293 transfection reagent (Mirus Bio) was added drop wise to 1500 μl Opti-MEM I Reduced Serum Medium (Invitrogen) and incubated at room temperature (RT) for 5 to 20 minutes. 1500 μL of this reagent mixture was added to 5 μg of GAL4 fusion protein expression vector and 5 μg of the transcriptional reporter construct, and incubated at RT for 20 minutes.
To harvest 293FT cells from a T75 flask, first the culture medium was taken off the cells. Subsequently, the cells were washed with Phosphate Buffered Saline (PBS) (Lonza), after which the PBS was removed. To dissociate the cells, 1 ml of TrypLE Express (Invitrogen) was added to the flask, followed by incubation at RT until the cells visually started to detach. Cells were collected in 5 mL of assay medium (DMEM culture medium (Lonza), 10% dialyzed FBS (Invitrogen) and Pen/Strep (Lonza)) to achieve a single cell suspension. 10×10^6 cells were spun down and re-suspended in 10 mL of assay medium. Subsequently, the cell suspension was added to the transfection mix tube, and then transferred as a whole to a T75 flask (Greiner), followed by overnight (16-24 hours) incubation at 37° C. and 5% CO2.
For compound screening, the cells were harvested (as described above) and counted. 13×10^6 cells were spun down, the supernatant was aspirated and the cells were re-suspended in 17.3 mL of assay medium obtaining a cell suspension of 0.75×10^6 cells/mL. 80 μL of cell suspension (60,000 cells) was plated per well into a white, flat bottom, tissue culture treated, 96 well screening plates (Greiner).
Test compounds were diluted, starting from a 10 mM dimethylsulfoxide (DMSO) stock solution, to serial dilutions in DMSO at 500× the final test concentration. Subsequently, these solutions were diluted to 5× the final test concentration in two 10-fold-dilution steps in assay medium. The final DMSO concentration of the 5× test compound solution was 1%. […]
(In general: A reporter such as luciferase makes a cellular process visible.)

On to `CN1CCN(C(=O)c2ccc(NC(=O)Cc3ccc(S(=O)(=O)CC4CC4)cc3)cc2)C(c2ccccc2)C1` (stereo not shown) [Example 57, 2-(4-cyclopropylmethanesulfonylphenyl)-N-[4-(4-methyl-2-phenylpiperazine-1-carbonyl)phenyl]acetamide], for which the IC50 is not above 100 nM.

For the compound `CCN(C(=O)c1ccc(NC(=O)Cc2ccc(S(=O)(=O)CC3CC3)cc2)cc1OC)c1ccccc1` [Example 58, 4-[2-(4-cyclopropylmethanesulfonylphenyl)acetamido]-N-ethyl-2-methoxy-N-phenylbenzamide], the IC50 is not above 100 nM.

Turning to `CN(Cc1ccco1)C(=O)c1ccc(NC(=O)Cc2ccc(S(=O)(=O)CC3CC3)cc2)cc1` [Example 59, 4-[2-(4-cyclopropylmethanesulfonylphenyl)acetamido]-N-(furan-2-ylmethyl)-N-methylbenzamide], the IC50 was not above 100 nM.

Turning to `CC(C)(CN1CCOCC1)NC(=O)c1ccc(NC(=O)Cc2ccc(S(=O)(=O)CC3CC3)cc2)cc1` [Example 60, 4-[2-(4-cyclopropylmethanesulfonylphenyl)acetamido]-N-[2-methyl-1-(morpholin-4-yl)propan-2-yl]benzamide], the IC50 is not above 1000 nM.

Consider `C=CCN(CC=C)C(=O)c1ccc(NC(=O)Cc2ccc(S(=O)(=O)CC3CC3)cc2)cc1` [Example 61, 4-[2-(4-cyclopropylmethanesulfonylphenyl)acetamido]-N,N-bis(prop-2-en-1-yl)benzamide], for which the IC50 was not above 100 nM.

For `CC(C)CN(CC(C)C)C(=O)c1ccc(NC(=O)Cc2ccc(S(=O)(=O)NC3CC3)cc2)cc1` [Example 62, 4-{2-[4-(cyclopropylsulfamoyl)phenyl]acetamido}-N,N-bis(2-methylpropyl)benzamide], the IC50 is not above 1000 nM.

Take `O=C(Cc1ccc(S(=O)(=O)CC2CC2)cc1)Nc1ccc(C(=O)N2CCCCc3ccccc32)cc1` [Example 63, 2-(4-cyclopropylmethanesulfonylphenyl)-N-[4-(2,3,4,5-tetrahydro-1H-1-benzazepine-1-carbonyl)phenyl]acetamide]: the IC50 was not above 10 nM.

Regarding `CCN(C(=O)c1ccc(NC(=O)Cc2ccc(S(=O)(=O)CC3CC3)cc2)cc1)c1nc(C)c(C)s1` [Example 64, 4-[2-(4-cyclopropylmethanesulfonylphenyl)acetamido]-N-(4-methyl-5-methyl-1,3-thiazol-2-yl)-N-ethylbenzamide], the IC50 was not above 10 nM.

On to `CCCN(C(=O)c1ccc(NC(=O)Cc2ccc(S(=O)(=O)NC3CC3)cc2)cc1)c1cccnc1` [Example 65, 4-{2-[4-(cyclopropylsulfamoyl)phenyl]acetamido}-N-propyl-N-(pyridin-3-yl)benzamide], for which the IC50 was not above 1000 nM.

Turning to `O=C(Cc1ccc(S(=O)(=O)NC2CC2)cc1)Nc1ccc(C(=O)N2CCCCC2c2ccccc2)cc1` (stereo not shown) [Example 66, 2-[4-(cyclopropylsulfamoyl)phenyl]-N-[4-(2-phenylpipendine-1-carbonyl)phenyl]acetamide], the IC50 was not above 100 nM.

As to `CN(C(=O)c1ccc(NC(=O)Cc2ccc(S(=O)(=O)CC3CC3)cc2)cc1Cl)c1ccccn1` [Example 67, 2-chloro-4-[2-(4-cyclopropylmethanesulfonylphenyl)acetamido]-N-methyl-N-(pyridin-2-yl)benzamide], the IC50 was not above 1000 nM.

For the compound `CC(C)(NC(=O)c1ccc(NC(=O)Cc2ccc(S(=O)(=O)CC3CC3)cc2)cc1)c1cccnc1` [Example 68, 4-[2-(4-cyclopropylmethanesulfonylphenyl)acetamido]-N-[2-(pyridin-3-yl)propan-2-yl]benzamide], the IC50 was not above 1000 nM.

On to `CC(C)[C@@H](NC(=O)c1ccc(NC(=O)Cc2ccc(S(=O)(=O)CC3CC3)cc2)cc1)C(F)(F)F` [Example 69, 4-[2-(4-cyclopropylmethanesulfonylphenyl)acetamido]-N-[(2R)-1,1,1-trifluoro-3-methylbutan-2-yl]benzamide], for which the IC50 was not above 1000 nM.

Consider `COc1ccccc1[C@H](C)NC(=O)c1ccc(NC(=O)Cc2ccc(S(=O)(=O)CC3CC3)cc2)cc1` [Example 70, 4-[2-(4-cyclopropylmethanesulfonylphenyl)acetamido]-N-[(1S)-1-(2-methoxyphenyl)ethyl]benzamide], for which the IC50 is not above 1000 nM.

In the case of `N#CC(NC(=O)c1ccc(NC(=O)Cc2ccc(S(=O)(=O)CC3CC3)cc2)cc1)c1cccs1` (stereo not shown) [Example 72, N-[cyano(thiophen-2-yl)methyl]-4-[2-(4-cyclopropylmethanesulfonylphenyl)acetamido]benzamide], the IC50 is not above 1000 nM.

In the case of `N#CC(NC(=O)c1ccc(NC(=O)Cc2ccc(S(=O)(=O)CC3CC3)cc2)cc1)c1ccccc1` (stereo not shown) [Example 73, N-[cyano(phenyl)methyl]-4-[2-(4-cyclopropylmethanesulfonylphenyl)acetamido]benzamide], the IC50 was not above 1000 nM.

Take `O=C(Cc1ccc(S(=O)(=O)CC2CC2)cc1)Nc1ccc(C(=O)Nc2ccccc2OC(F)(F)F)cc1` [Example 74, 4-[2-(4-cyclopropylmethanesulfonylphenyl)acetamido]-N-[2-(trifluoromethoxy)phenyl]benzamide]: the IC50 is not above 100 nM.

`Cc1cccc(C)c1NC(=O)c1ccc(NC(=O)Cc2ccc(S(=O)(=O)CC3CC3)cc2)cc1` [Example 75, 4-[2-(4-cyclopropylmethanesulfonylphenyl)acetamido]-N-(2,6-dimethylphenyl) benzamide]: the IC50 was not above 100 nM.

In the case of `O=C(Cc1ccc(S(=O)(=O)CC2CC2)cc1)Nc1ccc(C(=O)N[C@H](c2ccc(Cl)cc2)C(F)(F)F)cc1` [Example 76, N-[(1R)-1-(4-chlorophenyl)-2,2,2-trifluoroethyl]-4-[2-(4-cyclopropylmethanesulfonylphenyl)acetamido]benzamide], the IC50 is not above 1000 nM.

Turning to `COCCN(C(=O)c1ccc(NC(=O)Cc2ccc(S(=O)(=O)CC3CC3)cc2)cc1)C1CC1` [Example 79, N-cyclopropyl-4-[[2-[4-(cyclopropylmethylsulfonyl)phenyl]acetyl]amino]-N-(2-methoxyethyl)benzamide], the IC50 is not above 1000 nM.

Regarding `CCCN(C(=O)c1ccc(NC(=O)Cc2ccc(S(=O)(=O)CC3CC3)cc2)cc1)c1ccsc1` [Example 81, 4-[2-(4-cyclopropylmethanesulfonylphenyl)acetamido]-N-propyl-N-(thiophen-3-yl)benzamide], the IC50 was not above 10 nM.

On to `CCCCN(C(=O)c1ccc(NC(=O)Cc2ccc(S(=O)(=O)CC3CC3)cc2)cc1)c1nccs1` [Example 82, N-butyl-4-[2-(4-cyclopropylmethanesulfonylphenyl)acetamido]-N-(1,3-thiazol-2-yl)benzamide], for which the IC50 was not above 100 nM.

As to `CCCN(C(=O)c1ccc(NC(=O)Cc2ccc(S(=O)(=O)CC3CC3)cc2)cc1)c1nccs1` [Example 83, 4-[2-(4-cyclopropylmethanesulfonylphenyl)acetamido]-N-propyl-N-(1,3-thiazol-2-yl)benzamide], the IC50 is not above 10 nM.

Regarding `CCN(C(=O)c1ccc(NC(=O)Cc2ccc(S(=O)(=O)CC3CC3)cc2)cc1)c1nccs1` [Example 84, 4-[2-(4-cyclopropylmethanesulfonylphenyl)acetamido]-N-ethyl-N-(1,3-thiazol-2-yl)benzamide], the IC50 was not above 100 nM.

Take `CN(C(=O)c1ccc(NC(=O)Cc2ccc(S(=O)(=O)CC3CC3)cc2)cc1)c1nccs1` [Example 85, 4-[2-(4-cyclopropylmethanesulfonylphenyl)acetamido]-N-methyl-N-(1,3-thiazol-2-yl)benzamide]: the IC50 is not above 1000 nM.
